Patent publication US20230365546A1, “5-SUBSTITUTED INDOLE 3-AMIDE DERIVATIVES, PREPARATION METHOD AND USE THEREOF” (ORIGIANT PHARMACEUTICAL CO., LTD, priority 2020, published 2023)

Tests used:
[1] = target: RIPK1 (Homo sapiens (Human), UniProt Q13546); assay: In vitro kinase assay (Eurofins Kinase Profiler), IC50; format: biochemical; conditions: 0.001-10 μM, read-out: RIPK 1 (IC50)
[2] = tested on: HT-29 cells; assay: Protection against programmed necrosis of HT-29 cells (TNF α/Smac mimetic/Z-VAD-FMK, CCK8); format: cell-based; conditions: Homo sapiens, TNF α/Smac mimetic/Z-VAD-FMK induced 24 h, CCK8, read-out: HT-29 (EC50)
Procedure: In vitro protection against programmed necrosis of HT-29 cells was conducted by ourselves.
DMEM medium was purchased from Gibco Inc., penicillin and streptomycin were purchased from HyClone Inc., TNF α was purchased from PeproTech Inc., Smac mimetic and Z-VAD-FMK were purchased from Selleck Inc., CCK8 was purchased from Medchem Express Inc.
HT-29 cells (colon cancer cells) were cultured in DMEM+10% FBS+Penicillin/Streptomycin medium. During the experiments, HT-29 cells in logarithmic growth phase were harvested, seeded in a 96-well plate at specific numbers per well (typically 8×10^3 cells/well of adherent cells) and cultured overnight in a 37° C., 5% CO2 cell culture incubator. The next day, the compounds to be tested were diluted with culture medium to the corresponding concentrations and added into the corresponding wells of a 96-well plate, with 3 replicate wells for each sample, and a Vehicle control group and a blank Control group containing only culture medium were set at the same time. […] The absorbance was measured at 495 nm wavelength using a microplate reader, and the protection rate of the drug on the cells necrosis was calculated according to the following formula:
Protection rate of cell necrosis=[(X−C0)/(C−C0)]×100%
Wherein, C, C0, and X represent the mean absorbance values of the Vehicle control group, Blank control group and Drug treatment group, respectively.

Chain of RIPK1 (Q13546 whole entry): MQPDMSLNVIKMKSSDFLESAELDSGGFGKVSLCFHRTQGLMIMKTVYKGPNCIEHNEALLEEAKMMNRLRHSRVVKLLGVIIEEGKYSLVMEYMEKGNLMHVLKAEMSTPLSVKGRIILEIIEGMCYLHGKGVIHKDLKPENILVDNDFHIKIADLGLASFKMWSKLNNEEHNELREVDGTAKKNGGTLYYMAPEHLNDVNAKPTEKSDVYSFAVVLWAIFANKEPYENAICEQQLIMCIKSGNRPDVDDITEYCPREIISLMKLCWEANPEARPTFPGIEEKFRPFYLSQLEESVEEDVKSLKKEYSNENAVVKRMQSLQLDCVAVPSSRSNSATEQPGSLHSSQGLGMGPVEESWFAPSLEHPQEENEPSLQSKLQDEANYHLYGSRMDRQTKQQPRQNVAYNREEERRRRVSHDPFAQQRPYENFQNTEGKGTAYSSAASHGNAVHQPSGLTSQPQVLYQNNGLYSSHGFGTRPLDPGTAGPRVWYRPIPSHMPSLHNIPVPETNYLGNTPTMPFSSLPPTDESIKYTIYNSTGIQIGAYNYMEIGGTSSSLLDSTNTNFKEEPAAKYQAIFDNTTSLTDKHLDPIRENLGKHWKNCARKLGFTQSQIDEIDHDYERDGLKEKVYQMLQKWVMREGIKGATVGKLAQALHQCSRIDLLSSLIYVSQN

SMILES | IC50 [1] | EC50 [2]
COc1ccc(CNC(=O)c2c[nH]c3ccc(-c4ccc5nc(NC(=O)C6CC6)sc5c4)cc23)cc1 [Compound 1] | 0.01 to 0.1 µM | 0.01 to 0.1 µM
O=C(NCc1ccc(F)c(F)c1)c1c[nH]c2ccc(-c3ccc4nc(NC(=O)C5CC5)sc4c3)cc12 [Compound 2] | 0.01 to 0.1 µM | 0.1 to 1 µM
O=C(NCc1cc(F)cc(F)c1)c1c[nH]c2ccc(-c3ccc4nc(NC(=O)C5CC5)sc4c3)cc12 [Compound 3] | 0.01 to 0.1 µM | 0.01 to 0.1 µM
O=C(NCc1cccc(F)c1)c1c[nH]c2ccc(-c3ccc4nc(NC(=O)C5CC5)sc4c3)cc12 [Compound 4] | 0.01 to 0.1 µM | 0.01 to 0.1 µM
O=C(NCc1cc(C(F)(F)F)cc(C(F)(F)F)c1)c1c[nH]c2ccc(-c3ccc4nc(NC(=O)C5CC5)sc4c3)cc12 [Compound 5] | 0.1 to 1 µM | ≥ 1 µM
O=C(NCc1ccc(F)cc1)c1c[nH]c2ccc(-c3ccc4nc(NC(=O)C5CC5)sc4c3)cc12 [Compound 6] | 0.1 to 1 µM | 0.01 to 0.1 µM
N#Cc1ccc(CNC(=O)c2c[nH]c3ccc(-c4ccc5nc(NC(=O)C6CC6)sc5c4)cc23)cc1 [Compound 7] | 0.01 to 0.1 µM | 0.01 to 0.1 µM
O=C(NCc1cccc(C(F)(F)F)c1)c1c[nH]c2ccc(-c3ccc4nc(NC(=O)C5CC5)sc4c3)cc12 [Compound 8] | 0.01 to 0.1 µM | 0.001 to 0.01 µM
O=C(NCc1ccc(F)cc1F)c1c[nH]c2ccc(-c3ccc4nc(NC(=O)C5CC5)sc4c3)cc12 [Compound 9] | 0.01 to 0.1 µM | 0.001 to 0.01 µM
O=C(NCc1cccc([N+](=O)[O-])c1)c1c[nH]c2ccc(-c3ccc4nc(NC(=O)C5CC5)sc4c3)cc12 [Compound 10] | 0.1 to 1 µM | 0.1 to 1 µM
COc1cc(CNC(=O)c2c[nH]c3ccc(-c4ccc5nc(NC(=O)C6CC6)sc5c4)cc23)cc(OC)c1 [Compound 11] | 0.1 to 1 µM | ≥ 1 µM
COc1cccc(CNC(=O)c2c[nH]c3ccc(-c4ccc5nc(NC(=O)C6CC6)sc5c4)cc23)c1 [Compound 12] | 0.1 to 1 µM | ≥ 1 µM
Cc1ccc(CNC(=O)c2c[nH]c3ccc(-c4ccc5nc(NC(=O)C6CC6)sc5c4)cc23)cc1 [Compound 13] | 0.01 to 0.1 µM | 0.001 to 0.01 µM
O=C(NCc1cccc2ccccc12)c1c[nH]c2ccc(-c3ccc4nc(NC(=O)C5CC5)sc4c3)cc12 [Compound 14] | ≥ 1 µM | ≥ 1 µM
Cc1cccc(CNC(=O)c2c[nH]c3ccc(-c4ccc5nc(NC(=O)C6CC6)sc5c4)cc23)c1 [Compound 15] | 0.01 to 0.1 µM | 0.01 to 0.1 µM
O=C(NCc1ccc(C(F)(F)F)cc1)c1c[nH]c2ccc(-c3ccc4nc(NC(=O)C5CC5)sc4c3)cc12 [Compound 16] | 0.01 to 0.1 µM | 0.01 to 0.1 µM
O=C(NCc1ccco1)c1c[nH]c2ccc(-c3ccc4nc(NC(=O)C5CC5)sc4c3)cc12 [Compound 17] | 0.01 to 0.1 µM | 0.01 to 0.1 µM
O=C(NCc1cccs1)c1c[nH]c2ccc(-c3ccc4nc(NC(=O)C5CC5)sc4c3)cc12 [Compound 18] | 0.01 to 0.1 µM | 0.001 to 0.01 µM
O=C(NCc1cccc(OC(F)(F)F)c1)c1c[nH]c2ccc(-c3ccc4nc(NC(=O)C5CC5)sc4c3)cc12 [Compound 19] | 0.01 to 0.1 µM | 0.001 to 0.01 µM
O=C(NCc1ccncc1)c1c[nH]c2ccc(-c3ccc4nc(NC(=O)C5CC5)sc4c3)cc12 [Compound 20] | ≥ 1 µM | ≥ 1 µM
O=C(NCc1ccccc1F)c1c[nH]c2ccc(-c3ccc4nc(NC(=O)C5CC5)sc4c3)cc12 [Compound 21] | 0.01 to 0.1 µM | 0.001 to 0.01 µM
O=C(NCc1cccc(Cl)c1)c1c[nH]c2ccc(-c3ccc4nc(NC(=O)C5CC5)sc4c3)cc12 [Compound 22] | 0.01 to 0.1 µM | 0.001 to 0.01 µM
O=C(NCc1cccc(Br)c1)c1c[nH]c2ccc(-c3ccc4nc(NC(=O)C5CC5)sc4c3)cc12 [Compound 23] | 0.1 to 1 µM | 0.001 to 0.01 µM
O=C(NCc1ccccc1C(F)(F)F)c1c[nH]c2ccc(-c3ccc4nc(NC(=O)C5CC5)sc4c3)cc12 [Compound 24] | 0.1 to 1 µM | 0.01 to 0.1 µM
O=C(NCc1cc(F)ccc1F)c1c[nH]c2ccc(-c3ccc4nc(NC(=O)C5CC5)sc4c3)cc12 [Compound 25] | 0.01 to 0.1 µM | < 0.001 µM
COc1ccc(CNC(=O)c2c[nH]c3ccc(-c4ccc5nc(NC(=O)C6CC6)sc5c4)cc23)cc1OC [Compound 26] | 0.1 to 1 µM | ≥ 1 µM
O=C(NCc1ccccc1)c1c[nH]c2ccc(-c3ccc4nc(NC(=O)C5CC5)sc4c3)cc12 [Compound 27] | – | 0.01 to 0.1 µM

SMILES | IC50 [1] | EC50 [2]
CC(C)c1ccc(CNC(=O)c2c[nH]c3ccc(-c4ccc5nc(NC(=O)C6CC6)sc5c4)cc23)cc1 [Compound 28] | 0.1 to 1 µM | ≥ 1 µM
CC(C)(C)c1ccc(CNC(=O)c2c[nH]c3ccc(-c4ccc5nc(NC(=O)C6CC6)sc5c4)cc23)cc1 [Compound 29] | 0.1 to 1 µM | 0.1 to 1 µM
C[C@H](NC(=O)c1c[nH]c2ccc(-c3ccc4nc(NC(=O)C5CC5)sc4c3)cc12)c1ccc(F)cc1 [Compound 30] | 0.01 to 0.1 µM | < 0.001 µM
C[C@@H](NC(=O)c1c[nH]c2ccc(-c3ccc4nc(NC(=O)C5CC5)sc4c3)cc12)c1ccc(F)cc1 [Compound 31] | 0.1 to 1 µM | 0.1 to 1 µM
COc1ccc([C@@H](C)NC(=O)c2c[nH]c3ccc(-c4ccc5nc(NC(=O)C6CC6)sc5c4)cc23)cc1 [Compound 32] | 0.01 to 0.1 µM | 0.001 to 0.01 µM
COc1ccc([C@H](C)NC(=O)c2c[nH]c3ccc(-c4ccc5nc(NC(=O)C6CC6)sc5c4)cc23)cc1 [Compound 33] | 0.01 to 0.1 µM | < 0.001 µM
C[C@@H](NC(=O)c1c[nH]c2ccc(-c3ccc4nc(NC(=O)C5CC5)sc4c3)cc12)c1cccc(F)c1 [Compound 35] | 0.1 to 1 µM | 0.01 to 0.1 µM
C[C@@H](NC(=O)c1c[nH]c2ccc(-c3ccc4nc(NC(=O)C5CC5)sc4c3)cc12)c1cccc(Cl)c1 [Compound 36] | 0.1 to 1 µM | 0.1 to 1 µM
C[C@H](NC(=O)c1c[nH]c2ccc(-c3ccc4nc(NC(=O)C5CC5)sc4c3)cc12)c1cccc(Cl)c1 [Compound 37] | 0.01 to 0.1 µM | 0.001 to 0.01 µM
COc1cccc([C@H](C)NC(=O)c2c[nH]c3ccc(-c4ccc5nc(NC(=O)C6CC6)sc5c4)cc23)c1 [Compound 38] | 0.01 to 0.1 µM | 0.001 to 0.01 µM
COc1cccc([C@@H](C)NC(=O)c2c[nH]c3ccc(-c4ccc5nc(NC(=O)C6CC6)sc5c4)cc23)c1 [Compound 39] | 0.1 to 1 µM | 0.01 to 0.1 µM
C[C@H](NC(=O)c1c[nH]c2ccc(-c3ccc4sc(NC(=O)C5CC5)nc4c3)cc12)c1cccc(F)c1 [Compound 40] | 0.1 to 1 µM | 0.01 to 0.1 µM
C[C@H](NC(=O)c1c[nH]c2ccc(-c3ccc(NC(=O)C4CC4)nc3)cc12)c1cccc(F)c1 [Compound 41] | 0.1 to 1 µM | 0.1 to 1 µM
C[C@H](NC(=O)c1c[nH]c2ccc(-c3ccc(NC(=O)C4CC4)cc3)cc12)c1cccc(F)c1 [Compound 42] | 0.1 to 1 µM | ≥ 1 µM
C[C@H](NC(=O)c1c[nH]c2ccc(-c3cnc(NC(=O)C4CC4)nc3)cc12)c1cccc(F)c1 [Compound 43] | ≥ 1 µM | ≥ 1 µM
C[C@H](NC(=O)c1c[nH]c2ccc(-c3ccc4nc(NC(=O)C5CC5)ncc4c3)cc12)c1cccc(F)c1 [Compound 44] | 0.1 to 1 µM | 0.01 to 0.1 µM
C[C@H](NC(=O)c1c[nH]c2ccc(-c3ccc4nc(NC(=O)C5CC5)nn4c3)cc12)c1cccc(F)c1 [Compound 45] | 0.01 to 0.1 µM | 0.01 to 0.1 µM
C[C@H](NC(=O)c1c[nH]c2ccc(-c3ccc4nc(NC(=O)C5CCC5)sc4c3)cc12)c1cccc(F)c1 [Compound 47] | 0.01 to 0.1 µM | 0.001 to 0.01 µM
C[C@H](NC(=O)c1c[nH]c2ccc(-c3ccc4nc(NC(=O)C5CCCC5)sc4c3)cc12)c1cccc(F)c1 [Compound 48] | 0.01 to 0.1 µM | 0.001 to 0.01 µM
C[C@H](NC(=O)c1c[nH]c2ccc(-c3ccc4nc(NC(=O)C5CCCCC5)sc4c3)cc12)c1cccc(F)c1 [Compound 49] | 0.01 to 0.1 µM | 0.01 to 0.1 µM
C[C@H](NC(=O)c1c[nH]c2ccc(-c3ccc4nc(NC(=O)C(C)(C)C)sc4c3)cc12)c1cccc(F)c1 [Compound 50] | 0.01 to 0.1 µM | 0.01 to 0.1 µM
C[C@H](NC(=O)c1c[nH]c2ccc(-c3ccc4nc(NC(=O)C5CCOCC5)sc4c3)cc12)c1cccc(F)c1 [Compound 51] | 0.01 to 0.1 µM | 0.01 to 0.1 µM
C[C@H](NC(=O)c1c[nH]c2ccc(-c3ccc4nc(NC(=O)C(F)(F)F)sc4c3)cc12)c1cccc(F)c1 [Compound 52] | 0.1 to 1 µM | 0.01 to 0.1 µM
C[C@H](NC(=O)c1c[nH]c2ccc(-c3ccc4nc(NC(=O)C5CCN(C)CC5)sc4c3)cc12)c1cccc(F)c1 [Compound 53] | 0.1 to 1 µM | 0.1 to 1 µM
Cn1cc(C(=O)NCc2cc(F)ccc2F)c2cc(-c3ccc4nc(NC(=O)C5CC5)sc4c3)ccc21 [Compound 54] | 0.01 to 0.1 µM | < 0.001 µM
C[C@H](NC(=O)c1cn(C)c2ccc(-c3ccc4nc(NC(=O)C5CC5)nn4c3)cc12)c1cccc(F)c1 [Compound 90] | 0.1 to 1 µM | –
C[C@H](NC(=O)c1cn(C)c2ccc(-c3ccc4c(NC(=O)C5CC5)n[nH]c4c3)cc12)c1cccc(F)c1 [Compound 110] | < 0.001 µM | –
